{
  "source": "patent US6528618B1",
  "about": "“Anti-inflammatory peptides derived from C-reactive protein” (Yeda Research and Development Co. Ltd., priority 1997, dated 2003)",
  "key": {"[1]": {"target": "T1, human leukocyte elastase (hLE) (Homo sapiens, UniProt P08246)", "T1 construct": "Neutrophils (1.4 billion) were isolated from whole blood obtained from a single healthy laboratory donor; from tissue; host or cells: neutrophils from whole blood of a single healthy donor", "T1 sequence (P08246 30-247 limits assumed)": "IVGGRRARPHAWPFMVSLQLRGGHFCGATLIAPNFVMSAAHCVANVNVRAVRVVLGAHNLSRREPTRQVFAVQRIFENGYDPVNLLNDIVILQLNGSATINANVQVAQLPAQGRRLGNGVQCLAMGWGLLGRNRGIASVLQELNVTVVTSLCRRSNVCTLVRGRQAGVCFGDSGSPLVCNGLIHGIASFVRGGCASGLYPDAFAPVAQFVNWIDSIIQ", "assay": "In vitro inhibition of hLE (cleavage of MeOSuc-AAPV-NA)", "type": "biochemical", "details": "for Ki: hLE Ki [μM], substrate MeOSuc-AAPV-NA 200 μM, pH 7.4, 37 C; for fold decrease in hLE inhibitory activity compared to peptide 6: relative to peptide 6", "protocol": "(§1) The enzymatic activity was assayed with MeOSuc-AAPV-NA for hLE determination and Suc-AAPF-NA for hCG determination (both in 100 mM Hepes buffer, pH 7.4, containing 0.05% of the […] detergent Brij-35). The activities of the individual enzymatic fractions were 100% free from cross-contamination. […] The fractions containing hLE and hCG were dialyzed each against 0.1% pyridinium acetate, pH 5.3, divided into 20 aliquots, lyophilized, and stored at −20 ° C. until use.\n(v) Inhibition experiments with hLE: Peptides were dissolved in 100 mM Hepes buffer pH 7.4 containing 0.1% Brij-35 with 10%. DMSO to yield 300 μM solutions, which were used to make further dilutions with the same buffer, and 80 μL aliquots were added in duplicates to 96-well plates. The substrate, 600 μM MeOSuc-AAPV-NA in the same buffer with 5% DMSO, was added to each well in addition to the blank wells, and the plate was placed in the plate reader equilibrated to 37 C (Dynateck MR-6000). Lyophilized aliquots of hLE were dissolved in 1600 μL of 100 mM Hepes buffer without DMSO, and 80 μL of the enzyme solution was added to the peptides and substrate to initiate the reaction. […] The final volume was 240 μL containing: 5% DMSO, 1-100 μM of peptide, 200 μM substrate, and 0.75 μg (˜25 picomol) enzyme.\n(viii) Calculations: For hLE, V is determined by fitting a linear equation to the first 6 time-points (10 min) of the kinetics data using the least squares method. […] Several inhibitor concentration in duplicates and two control wells were used to fit a linear equation to graphs of Vo/Vi−1 vs. [I] for each inhibitor using the least squares method (8 data points for each inhibitor). From calculating the error in the slope of the equation, the relative error for Ki was deduced:\nKi={slope*(1+[S]/Km)}^−1because Ki=[I]*{(1+[S]/Km)*(Vo/Vi−1)}^−1.\nThe hLE inhibitory capability of CRP-derived peptides was evaluated by inhibiting the enzymatic cleavage of MeOSuc-AAPV-NA as described in Materials and Methods (section v)."}, "[2]": {"target": "T2, human leukocyte cathepsin G (hCG) (Homo sapiens, UniProt P08311)", "T2 construct": "Neutrophils (1.4 billion) were isolated from whole blood obtained from a single healthy laboratory donor; from tissue; host or cells: neutrophils from whole blood of a single healthy donor", "T2 sequence (P08311 21-243 limits assumed)": "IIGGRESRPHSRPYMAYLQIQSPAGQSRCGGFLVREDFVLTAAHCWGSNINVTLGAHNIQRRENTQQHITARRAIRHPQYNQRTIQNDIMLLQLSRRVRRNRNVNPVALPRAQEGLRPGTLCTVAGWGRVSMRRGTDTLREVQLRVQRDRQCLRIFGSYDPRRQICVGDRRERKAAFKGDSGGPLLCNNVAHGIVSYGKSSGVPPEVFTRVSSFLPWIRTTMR", "assay": "In vitro inhibition of hCG (cleavage of Suc-AAPF-NA)", "type": "biochemical", "details": "for Ki: hCG Ki [μM], substrate Suc-AAPF-NA 600 μM, pH 7.4", "protocol": "as §1\nvi) Inhibition experiments with hCG: Similar conditions to hLE inhibition experiments were used except the substrate: 80 μL of 1.80 mM Suc-AAPF-NA. The enzyme was dissolved in 800 μL buffer, and the reaction was monitored every 6 min for 1 hour. The final volume was 240 μL containing: 5% DMSO, 1-100 μM peptide, 600 μM substrate, and 1.2 μg enzyme (about 40 picomol).\nFor hCG, V is determined by fitting a quadratic equation to the total kinetic data (60 min), using the least squares method and calculating V at t=0.\nThe hCG inhibitory capability of CRP-derived peptides was evaluated by inhibiting the enzymatic cleavage of Suc-AAPF-NA as described in Materials and Methods (section vi)."}},
  "note": "“Also recorded” adds a separate entry of the source. Where a SMILES comes first, the peptide text is derived from it.",
  "data": [
    {"compound": "CC[C@H](C)[C@H](NC(=O)[C@H](CC(=O)O)NC(=O)[C@H](CCCCN)NC(=O)[C@@H]1CCCN1C(=O)[C@H](Cc1c[nH]c2ccccc12)NC(=O)[C@H](Cc1ccccc1)NC(=O)[C@@H](NC(=O)[C@H](CC(C)C)NC(=O)[C@@H](NC(=O)[C@@H](N)CCC(=O)O)[C@@H](C)CC)[C@@H](C)CC)C(=O)NCC(=O)N[C@@H](Cc1ccc(O)cc1)C(=O)N[C@@H](CO)C(=O)N[C@@H](Cc1ccccc1)C(=O)N[C@H](C(=O)O)[C@@H](C)O", "note": "[Peptide 19, Glu-Ile-Leu-Ile-Phe-Trp-Pro-Lys-Asp-Ile-Gly-Tyr-Ser-Phe-Thr] (H-EILIFWPKDIGYSFT-OH; N-terminus and C-terminus assumed)", "values": [
      {"measurement": "hLE inhibitory activity (in words)", "setting": "[1]", "result": "two orders of magnitude loss of inhibitory activity"},
      {"measurement": "Ki", "setting": "[1]; Table 2", "result": "> 200", "unit": "µM"}
    ]},
    {"compound": "CC[C@H](C)[C@H](NC(=O)[C@H](C)NC(=O)[C@H](CCCCN)NC(=O)[C@H](CO)NC(=O)[C@H](Cc1c[nH]c2ccccc12)NC(=O)[C@H](Cc1ccccc1)NC(=O)[C@@H](NC(=O)[C@H](CC(C)C)NC(=O)[C@@H](NC(=O)[C@@H](N)CCC(=O)O)[C@@H](C)CC)[C@@H](C)CC)C(=O)NCC(=O)N[C@@H](Cc1ccc(O)cc1)C(=O)N[C@@H](CO)C(=O)N[C@@H](Cc1ccccc1)C(=O)N[C@H](C(=O)O)[C@@H](C)O", "note": "[Peptide 22, Glu-Ile-Leu-Ile-Phe-Trp-Ser-Lys-Ala-Ile-Gly-Tyr-Ser-Phe-Thr] (H-EILIFWSKAIGYSFT-OH; N-terminus and C-terminus assumed)", "values": [
      {"measurement": "Ki", "setting": "[2]; Table 2", "result": "5.5 ± 1.5", "unit": "µM"},
      {"measurement": "hLE inhibitory activity (in words)", "setting": "[1]", "result": "large decrease in inhibition capacity"},
      {"measurement": "Ki", "setting": "[1]; Table 2", "result": "3 ± 0.6", "unit": "µM"}
    ]},
    {"compound": "CC[C@H](C)[C@H](NC(=O)[C@H](CC(=O)O)NC(=O)[C@H](CCCCN)NC(=O)[C@H](CO)NC(=O)[C@@H](N)Cc1c[nH]c2ccccc12)C(=O)NCC(=O)N[C@@H](Cc1ccc(O)cc1)C(=O)N[C@@H](CO)C(=O)N[C@@H](Cc1ccccc1)C(=O)N[C@H](C(=O)N[C@H](C(=O)NCC(=O)NCC(=O)N[C@@H](CO)C(=O)N[C@@H](CCC(=O)O)C(=O)O)C(C)C)[C@@H](C)O", "note": "[Peptide 7, Trp-Ser-Lys-Asp-Ile-Gly-Tyr-Ser-Phe-Thr-Val-Gly-Gly-Ser-Glu] (H-WSKDIGYSFTVGGSE-OH)", "values": [
      {"measurement": "Ki", "setting": "[2]; Table 1", "result": "> 200", "unit": "µM"},
      {"measurement": "Ki", "setting": "[1]; Table 1", "result": "> 200", "unit": "µM"}
    ]},
    {"compound": "CC[C@H](C)[C@H](NC(=O)[C@H](CC(=O)O)NC(=O)[C@H](CCCCN)NC(=O)[C@@H](N)CO)C(=O)NCC(=O)N[C@@H](Cc1ccc(O)cc1)C(=O)N[C@@H](CO)C(=O)O", "note": "[Peptide 16, Ser-Lys-Asp-Ile-Gly-Tyr-Ser] (H-SKDIGYS-OH)", "values": [
      {"measurement": "Ki", "setting": "[2]; Table 2", "result": "> 200", "unit": "µM"},
      {"measurement": "hLE inhibitory activity (in words)", "setting": "[1]", "result": "totally inactive"},
      {"measurement": "Ki", "setting": "[1]; Table 2", "result": "> 200", "unit": "µM"}
    ]},
    {"compound": "CC[C@H](C)[C@H](NC(=O)[C@H](CCC(=O)O)NC(=O)[C@H](CCCCN)NC(=O)[C@H](CO)NC(=O)[C@H](Cc1c[nH]c2ccccc12)NC(=O)[C@H](Cc1ccccc1)NC(=O)[C@@H](NC(=O)[C@H](CC(C)C)NC(=O)[C@@H](NC(=O)[C@@H](N)CCC(=O)O)[C@@H](C)CC)[C@@H](C)CC)C(=O)NCC(=O)N[C@@H](Cc1ccc(O)cc1)C(=O)N[C@@H](CO)C(=O)N[C@@H](Cc1ccccc1)C(=O)N[C@H](C(=O)O)[C@@H](C)O", "note": "[Peptide 23, Glu-Ile-Leu-Ile-Phe-Trp-Ser-Lys-Glu-Ile-Gly-Tyr-Ser-Phe-Thr] (H-EILIFWSKEIGYSFT-OH; N-terminus and C-terminus assumed)", "values": [
      {"measurement": "Ki", "setting": "[2]; Table 2", "result": "0.85 ± 0.25", "unit": "µM"},
      {"measurement": "hLE inhibitory activity (in words)", "setting": "[1]", "result": "small decrease in inhibitory activity"}
    ]},
    {"compound": "CC[C@H](C)[C@H](NC(=O)CNC(=O)[C@H](Cc1ccc(O)cc1)NC(=O)[C@H](CO)NC(=O)[C@H](Cc1ccccc1)NC(=O)[C@@H](N)[C@@H](C)O)C(=O)N[C@@H](CC(=O)O)C(=O)N[C@@H](CCCCN)C(=O)N[C@@H](CO)C(=O)N[C@@H](Cc1c[nH]c2ccccc12)C(=O)N[C@@H](Cc1ccccc1)C(=O)N[C@H](C(=O)N[C@@H](CC(C)C)C(=O)N[C@H](C(=O)N[C@@H](CCC(=O)O)C(=O)O)[C@@H](C)CC)[C@@H](C)CC", "note": "[Peptide 24, Thr-Phe-Ser-Tyr-Gly-Ile-Asp-Lys-Ser-Trp-Phe-Ile-Leu-Ile-Glu] (H-TFSYGIDKSWFILIE-OH; N-terminus and C-terminus assumed)", "values": [
      {"measurement": "fold decrease in hLE inhibitory activity compared to peptide 6", "setting": "[1]", "result": 30, "unit": "fold"}
    ]},
    {"compound": "CC[C@H](C)[C@H](NC(=O)[C@H](CC(=O)O)NC(=O)[C@H](CCCCN)NC(=O)[C@H](CO)NC(=O)[C@H](Cc1c[nH]c2ccccc12)NC(=O)[C@H](Cc1ccccc1)NC(=O)[C@@H](NC(=O)[C@H](CC(C)C)NC(=O)[C@@H](NC(=O)[C@@H](N)CCC(=O)O)[C@@H](C)CC)[C@@H](C)CC)C(=O)O", "note": "[Peptide 14, Glu-Ile-Leu-Ile-Phe-Trp-Ser-Lys-Asp-Ile] (H-EILIFWSKDI-OH; N-terminus and C-terminus assumed)", "values": [
      {"measurement": "hCG inhibitory activity (in words)", "setting": "[2]", "result": "retain significant inhibitory activity"},
      {"measurement": "hLE inhibitory activity (in words)", "setting": "[1]", "result": "still retains significant inhibitory activity; also recorded: retain significant inhibitory activity"}
    ]},
    {"compound": "CC[C@H](C)[C@H](NC(=O)[C@H](CC(=O)O)NC(=O)[C@@H](NC(=O)[C@H](CO)NC(=O)[C@H](Cc1c[nH]c2ccccc12)NC(=O)[C@H](Cc1ccccc1)NC(=O)[C@@H](NC(=O)[C@H](CC(C)C)NC(=O)[C@@H](NC(=O)[C@@H](N)CCC(=O)O)[C@@H](C)CC)[C@@H](C)CC)C(C)C)C(=O)O", "note": "[Peptide 26, Glu-Ile-Leu-Ile-Phe-Trp-Ser-Val-Asp-Ile] (H-EILIFWSVDI-OH; N-terminus and C-terminus assumed)", "values": [
      {"measurement": "hLE inhibitory activity (in words)", "setting": "[1]", "result": "slightly more potent than peptide 14"}
    ]},
    {"compound": "CC[C@H](C)[C@H](NC(=O)[C@H](CC(=O)O)NC(=O)[C@H](CCCCN)NC(=O)[C@H](CO)NC(=O)[C@H](Cc1c[nH]c2ccccc12)NC(=O)[C@H](Cc1ccccc1)NC(=O)[C@@H](NC(=O)[C@H](CC(C)C)NC(=O)[C@@H](NC(=O)[C@@H](N)CC(=O)O)[C@@H](C)CC)[C@@H](C)CC)C(=O)NCC(=O)N[C@@H](Cc1ccc(O)cc1)C(=O)N[C@@H](CO)C(=O)N[C@@H](Cc1ccccc1)C(=O)N[C@H](C(=O)O)[C@@H](C)O", "note": "[Peptide 18, Asp-Ile-Leu-Ile-Phe-Trp-Ser-Lys-Asp-Ile-Gly-Tyr-Ser-Phe-Thr] (H-DILIFWSKDIGYSFT-OH; N-terminus and C-terminus assumed)", "values": [
      {"measurement": "fold decrease in hLE inhibitory activity compared to peptide 6", "setting": "[1]", "result": 10, "unit": "fold"}
    ]},
    {"compound": "CC[C@H](C)[C@H](NC(=O)[C@H](CC(=O)O)NC(=O)[C@H](C)NC(=O)[C@H](CO)NC(=O)[C@H](Cc1c[nH]c2ccccc12)NC(=O)[C@H](Cc1ccccc1)NC(=O)[C@@H](NC(=O)[C@H](CC(C)C)NC(=O)[C@@H](NC(=O)[C@@H](N)CCC(=O)O)[C@@H](C)CC)[C@@H](C)CC)C(=O)O", "note": "[Peptide 25, Glu-Ile-Leu-Ile-Phe-Trp-Ser-Ala-Asp-Ile] (H-EILIFWSADI-OH; N-terminus and C-terminus assumed)", "values": [
      {"measurement": "hLE inhibitory activity (in words)", "setting": "[1]", "result": "slightly more potent than peptide 14"},
      {"measurement": "Ki", "setting": "[1]; Table 2", "result": "3 ± 0.5", "unit": "µM"}
    ]}
  ]
}
